Laboratory results reported in US20250388550A1, “SALTS OF AN ANTIOXIDANT AND CRYSTALLINE FORMS THEREOF” (Mironova Labs, Inc., priority 2022, published 2025).
One block for each molecule: values may come before it.

Legend:
[1] = Observation of isolated solid on removal from nitrogen stream; assay type: physicochemical; settings: upon removal from the nitrogen stream
Description: L-Ergothioneine calcium chloride Material A was obtained by heating a slurry of 173.9 mg of L-Ergothioneine Form A/B in 1 mL of water to 65° C. A faint turbid solution was afforded with the addition of 110.5 mg of calcium chloride to the slurry. The sample was refrigerated for 3 days and became clear. The clear solution was evaporated to dryness under nitrogen.

[2] = Hygroscopicity inferred from TGA weight loss; assay type: physicochemical; settings: weight loss likely volatilization of moisture
Description: Thermogravimetric (TG) analyses were performed using a Mettler-Toledo TGA/DSC3+ analyzer. Temperature and enthalpy adjustments were performed using indium, tin, and zinc, and then verified with indium. The balance was verified with calcium oxalate. The sample was placed in an aluminum pan. The pan was hermetically sealed, the lid pierced, and the pan was then inserted into the TG furnace. A weighed aluminum pan configured as the sample pan was placed on the reference platform. The furnace was heated under nitrogen. Samples were analyzed from 25° C. to 350° C. at 10° C./min. Thermogravimetric analyses typically experience a period of equilibration at the start of each analysis, indicated by red parentheses on the thermograms. The starting temperature for relevant weight loss calculations is selected at a point beyond this region (typically above 35° C.) for accuracy. DSC analysis on this instrument is less sensitive than on the DSC3+ differential scanning calorimeter. Therefore, in certain embodiments, samples with sufficient solids were analyzed by both instruments and the TGA thermogram from Mettler-Toledo TGA/DSC3+ analyzer is reported below.
The final endotherm with an onset of 234° C. is likely from concomitant melt and decomposition.
Thermal decomposition (FIG. 20), which caused the material to expand out of the pan, was evident above this temperature.

physchem = assay type: physicochemical; settings: 60 °C, organic solvent or mixture
Description: The approximate solubility of the L-Ergothioneine Form A/B mixture in various solvents was determined (Table 2).

[3] = Trituration of Form C in aqueous methanol below the critical water activity; assay type: physicochemical; settings: 10:90 water/MeOH, aw 0.29, RT, 5 d
Description: Although the dihydrate of L-Ergothioneine can form in the presence of water, aqueous methanol mixtures were utilized to enhance solubility. To avoid the dihydrate, the aqueous mixtures were prepared below the critical water activity of its formation. Form C was triturated in the aqueous mixtures and monitored for conversion to Form A by XRPD after 5 days (Table 19).

[4] = Slurry interconversion experiments of Forms A and C; assay type: physicochemical; settings: for Relative thermodynamic stability of the anhydrate forms: Form A versus Form C, at the temperatures evaluated; for Interconversion result (form): EtOH, 75° C.
Description: The choice of solvent affects the kinetics of polymorph conversion and not the thermodynamic relationship between polymorphic forms (Gu, CH., Young, V. Jr., Grant, DJ. J. Pharm. Sci 2001; 90 (11): 1878-1890).
Slurry interconversion experiments in ethanol (at 75° C.) and methanol (at room temperature) were still attempted to confirm the thermodynamic relationship between Forms A and C (Table 18).

[5] = DVS moisture sorption/desorption isotherm; assay type: physicochemical
Description: Moisture sorption/desorption data were collected on a VTI SGA-100 Vapor Sorption Analyzer. Samples were not dried prior to analysis. Sorption and desorption data were collected over a range from 5% to 95% RH at 10% RH increments under a dry air purge. The equilibrium criterion used for analysis was less than 0.0100% weight change in 5 minutes with a maximum equilibration time of 3 hours with a 2-minute data logging interval. Data were not corrected for the initial moisture content of the samples.

[6] = Physical stability assessment at controlled relative humidity, form by XRPD; assay type: physicochemical; settings: RT, 22 days
Text: Consistent with the DVS result, the critical water activity between the anhydrate and the dihydrate was tentatively determined to fall between 0.76 and 0.85 aw, above which hydration to Form B Dihydrate will occur. This is also consistent with the physical stability assessment at 33, 75, and 95% RH for 22 days; Form A Anhydrate remained Form A below the critical water activity, while hydration to Form B Dihydrate occurred above (Table 16).
(§1) The effect of relative humidity (RH) and water activity (aw) on the hydration state of L-Ergothioneine was investigated through both static exposure to different relative humidity (Table 17 and Table 18) and competitive water activity trituration experiments at room temperature (Table 20). The resulting solids were characterized by XRPD. These experiments were used to establish the relative humidity ranges for form stability of the thermodynamically stable anhydrate Form A and Form B Dihydrate. The critical water activity between the anhydrate and the dihydrate falls between 0.76 and 0.85 aw. This range is consistent with the DVS isotherms for both Forms A and C Anhydrate.

[7] = Competitive water activity trituration experiments at room temperature; assay type: physicochemical
Text: Water activity is related to relative humidity in that RH %=aw×100. Therefore, it is possible to directly relate the stability of an anhydrous/hydrate system in slurry experiments to solid state stability.
as §1

[8] = Text: It cannot be predicted in advance whether a compound exists in one or more solid forms, or whether the properties of the solid form are advantageous for manufacturing and pharmaceutical formulation.

Deliquescence [1]: appeared to deliquesce
Molecule: L-Ergothioneine calcium chloride

Hygroscopicity suggested by TGA weight loss [2]: hygroscopic
Molecule: C[N+](C)(C)C(Cc1c[nH]c(=S)[nH]1)C(=O)O.O=S(=O)([O-])O [L-Ergothioneine Sulfate Form A, L-Ergothioneine sulfate]

Molecule: C[N+](C)(C)C(Cc1cnc(S)[nH]1)C(=O)[O-] [L-Ergothioneine mixture, L-Ergothioneine]
solubility (physchem): < 2000 µg/mL

Molecule: C[N+](C)(C)C(Cc1cnc(S)[nH]1)C(=O)[O-] [L-Ergothioneine Form C Anhydrate, L-Ergothioneine]
Trituration result (form by XRPD) [3]: A + C (minor) | Relative thermodynamic stability of the anhydrate forms ([4]; listed as Form C Anhydrate): thermodynamically metastable relative to Form A | Weight loss upon equilibration ([5]; at 5% RH): 0.3 wt % | Water gain equivalent ([5]; at 95% RH): more than 1.5 mol/mol | Weight gain during sorption cycle ([5]; at 95% RH, equilibrium not achieved): more than 10.9 wt % | Hygroscopicity (DVS) ([5]; from 5 to 85% RH, listed as Form C): limited hygroscopicity | Complete desorption, equivalent loss of water ([5]; once reaching 5% RH): 1 mol/mol | Recovered material after DVS by XRPD ([5]; post-DVS): mixture of Form C Anhydrate, Form B Dihydrate, and another form | Weight loss on desorption cycle ([5]; until reaching 75% RH): 5.5 wt % | Weight gain during sorption cycle ([5]; up through 85% RH): approximately 0.9 wt % | Physical stability, resulting form ([6]; 75% RH): Form C | Physical stability, resulting form ([6]; 95% RH): Form B

Molecule: C[N+](C)(C)C(Cc1cnc(S)[nH]1)C(=O)[O-] [Forms A and C, L-Ergothioneine]
Interconversion result (form) ([4]; 14 days): A + C | Interconversion result (form) ([4]; 28 days): A + C (minor) | Water activity experiment result (form) ([7]; 15:85 water/MeOH, aw 0.39, RT, 8 d): B + A + C + anotherform | Water activity experiment result (form) ([7]; 20:80 water/MeOH, aw 0.47, RT, 8 d): B + A + C | Water activity experiment result (form) ([7]; 20:80 water/MeOH, aw 0.47, RT, 14 d): A + B | Water activity experiment result (form) ([7]; 70:30 water/MeOH, aw 0.86, RT, 13 d): B (PO) | Water activity experiment result (form) ([7]; solvent, aw and method cells empty, lines below 50:50 water/MeOH, aw 0.76): A + B + anotherform

Molecule: C[N+](C)(C)C(Cc1cnc(S)[nH]1)C(=O)[O-] [L-Ergothioneine phosphoric acid]
Hygroscopicity suggested by TGA weight loss [2]: hygroscopic | Solubility in polar protic solvents [8]: low solubility

Molecule: C[N+](C)(C)C(Cc1cnc(S)[nH]1)C(=O)[O-] [L-Ergothioneine Form B Dihydrate, L-Ergothioneine]
Physical stability, resulting form ([6]; 33% RH): partially dehydrate to a small quantity of both Forms A and C Anhydrates | Physical stability, resulting form ([6]; 75% RH, listed as Form B Dihydrate): sustained | Physical stability, resulting form ([6]; 95% RH, listed as Form B Dihydrate): sustained

Molecule: C[N+](C)(C)C(Cc1cnc(S)[nH]1)C(=O)[O-] [L-Ergothioneine Form A Anhydrate, L-Ergothioneine, reference compound]
Relative thermodynamic stability of the anhydrate forms ([4]; listed as Form A): more thermodynamically stable form | Hygroscopicity (DVS) ([5]; above 85% RH): significant hygroscopicity | Hygroscopicity (DVS) ([5]; from 5 to 85% RH, listed as Form A): low hygroscopicity
